# What was measured:
# Phosphodiesterase 4 = Phosphodiesterase 4 (Homo sapiens, UniProt P27815+Q08499+Q07343+Q08493); test: Inhibition of cAMP hydrolysis by human Phosphodiesterase 4; format: protein assay
# [1] = target: High affinity 3',5'-cyclic-AMP phosphodiesterase 7A (Homo sapiens, UniProt Q13946); test: Inhibition of human Phosphodiesterase 7
# Phosphodiesterase 3 = Phosphodiesterase 3 (Homo sapiens, UniProt Q14432+Q13370); test: Inhibition of Phosphodiesterase 3 from human pulmonary artery; format: tissue-based
# [2] = target: T1, cGMP-dependent 3',5'-cyclic phosphodiesterase (Bos taurus, UniProt P14099); test: Inhibition of bovine Phosphodiesterase 2
# T1 sequence (P14099 whole entry): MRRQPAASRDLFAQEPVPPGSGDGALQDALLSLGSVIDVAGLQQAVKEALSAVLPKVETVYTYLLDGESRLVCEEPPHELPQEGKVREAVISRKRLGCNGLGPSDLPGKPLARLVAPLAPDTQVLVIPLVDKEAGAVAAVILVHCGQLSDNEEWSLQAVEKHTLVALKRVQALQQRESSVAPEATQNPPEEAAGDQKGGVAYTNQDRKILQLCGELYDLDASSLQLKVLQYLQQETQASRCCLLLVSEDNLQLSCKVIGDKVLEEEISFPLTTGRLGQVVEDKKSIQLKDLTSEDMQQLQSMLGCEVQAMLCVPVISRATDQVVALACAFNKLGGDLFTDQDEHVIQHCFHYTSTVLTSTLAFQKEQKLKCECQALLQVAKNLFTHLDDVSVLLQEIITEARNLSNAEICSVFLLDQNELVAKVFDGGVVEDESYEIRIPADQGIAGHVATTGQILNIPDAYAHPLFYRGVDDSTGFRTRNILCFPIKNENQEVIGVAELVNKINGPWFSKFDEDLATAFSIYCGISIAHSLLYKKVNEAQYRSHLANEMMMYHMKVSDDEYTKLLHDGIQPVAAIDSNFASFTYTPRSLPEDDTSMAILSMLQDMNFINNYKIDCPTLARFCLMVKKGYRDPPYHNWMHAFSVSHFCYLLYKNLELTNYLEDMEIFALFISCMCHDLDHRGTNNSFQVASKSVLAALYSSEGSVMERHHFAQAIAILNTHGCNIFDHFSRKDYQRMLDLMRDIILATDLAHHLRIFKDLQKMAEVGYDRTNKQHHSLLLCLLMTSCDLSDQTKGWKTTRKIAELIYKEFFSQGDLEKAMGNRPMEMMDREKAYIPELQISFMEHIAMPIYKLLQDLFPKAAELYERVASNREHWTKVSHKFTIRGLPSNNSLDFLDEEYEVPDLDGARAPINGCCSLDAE
# Phosphodiesterase 6 = test: Inhibition of Phosphodiesterase 6 from bovine retina; format: protein assay, Bos taurus
# Phosphodiesterase 1 = Phosphodiesterase 1 (Bos taurus, UniProt Q01061+P14100); test: Inhibition of Phosphodiesterase 1 from bovine aorta; format: protein assay
# [3] = target: cGMP-specific 3',5'-cyclic phosphodiesterase (Homo sapiens, UniProt O76074); test: Inhibition of Phosphodiesterase 5 isolated from human trachea; format: tissue-based
# Chain of High affinity 3',5'-cyclic-AMP phosphodiesterase 7A (Q13946 whole entry): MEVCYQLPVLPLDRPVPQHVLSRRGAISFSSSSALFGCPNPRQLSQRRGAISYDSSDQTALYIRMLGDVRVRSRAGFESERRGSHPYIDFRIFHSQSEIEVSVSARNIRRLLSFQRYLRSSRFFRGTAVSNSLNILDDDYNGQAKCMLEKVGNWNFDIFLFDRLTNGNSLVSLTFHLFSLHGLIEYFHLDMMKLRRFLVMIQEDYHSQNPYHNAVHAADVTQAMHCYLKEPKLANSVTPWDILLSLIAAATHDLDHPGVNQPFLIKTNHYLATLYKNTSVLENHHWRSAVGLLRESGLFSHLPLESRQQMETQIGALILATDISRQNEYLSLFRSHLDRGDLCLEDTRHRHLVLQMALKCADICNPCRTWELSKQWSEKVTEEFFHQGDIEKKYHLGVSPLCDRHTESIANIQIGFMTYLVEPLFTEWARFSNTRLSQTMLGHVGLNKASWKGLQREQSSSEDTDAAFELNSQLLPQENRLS
Ki (Phosphodiesterase 4) [µM],SMILES,further results
0.1,COC(=O)N1C[C@H](C)[C@H](c2ccc(OC)c(OC3CCCC3)c2)C1,–
0.159,COC(=O)[C@@H]1CN(C(=O)OC)C[C@H]1c1ccc(OC)c(OC2CCCC2)c1,–
0.033,COC(=O)N1C[C@@H](C(C)=O)[C@H](c2ccc(OC)c(OC3CCCC3)c2)C1,–
0.55,CCOC(=O)[C@@H]1CN(C(=O)OC)C[C@H]1c1ccc(OC)c(OC2CCCC2)c1,–

# The remaining lines, values behind:
SMILES,Ki (Phosphodiesterase 4) [µM],further results
COC(=O)N1C[C@@H](c2ccc(OC)c(OC3CCCC3)c2)[C@](C)(CO)C1,0.037,–
COC(=O)N1CC[C@H](c2ccc(OC)c(OC3CCCC3)c2)C1,0.11,–
COC(=O)N1C[C@@H](CO)[C@H](c2ccc(OC)c(OC3CCCC3)c2)C1,0.224,–
COC(=O)N1C[C@@H](c2ccc(OC)c(OC3CCCC3)c2)[C@](C)(C(C)=O)C1,0.001,Ki [1]: 7.9 µM; Ki (Phosphodiesterase 3): > 100 µM; Ki [2]: > 100 µM; Ki (Phosphodiesterase 6): > 100 µM; Ki (Phosphodiesterase 1): > 100 µM; Ki [3]: > 100 µM
CC[C@@]1(C(C)=O)CN(C(=O)OC)C[C@H]1c1ccc(OC)c(OC2CCCC2)c1,0.01,–
CCOC(=O)[C@]1(C)CN(C(=O)OC)C[C@H]1c1ccc(OC)c(OC2CCCC2)c1,0.086,–
COC(=O)N1C[C@@H](c2ccc(OC)c(OC3CCCC3)c2)[C@](C)(C(=O)OC)C1,0.003,–
